Reference: patent US20220193445A1, “PHOTOERADICATION OF MICROORGANISMS WITH PULSED PURPLE OR BLUE LIGHT” (SAN DIEGO STATE UNIVERSITY RESEARCH FOUNDATION, priority 2016, published 2022)
Where “and” joins values, the source holds several entries; their conditions need not be identical. Equal values may be shown once.

Tests used:
[1] = tested on: GBS wild type strain COH1; test: GBS survival with porphyrin supplementation, with or without pulsed 450 nm light (Study 1, no incubation); type: cell-based, Group B Streptococcus (GBS)
Procedure: GBS wild type strain COH1 was added to 3 mL of Todd Hewitt broth and grown aerobically overnight at 37° C. From the overnight cultures, 500 uL of GBS was added to fresh Todd Hewitt broth and grown logarithmically at 37° C. until reaching a concentration of 10^8 CFU/mL. The culture was then centrifuged at 1300 rpm for three minutes, the supernatant was removed and discarded, and 1 mL of fresh Todd Hewitt broth was added. Serial dilutions of NaCl were made to obtain a suspension of GBS diluted to a concentration of 1×10^4 CFU/mL. The GBS were streaked onto Todd Hewitt agar plates both with and without the addition of diluted porphyrins (different concentrations of PPIX or CP III).
The lighted substrate was set to operate in 33% DF pulsed mode and driven with a constant current source. The average irradiance was 3 mW/cm^2. The pulse duration was 10 microseconds with an off time of 20 microseconds, and a pulse repetition rate of 33 kHz. The plates subject to light treatment were irradiated three times at […] with a radiant exposure of 7.56 J/cm^2 during each irradiation session (i.e., each irradiation session was 42 minutes with an incubation period there between of 30 minutes).
(§1) After irradiation protocols were completed, the plates were placed upside down in the anaerobic chamber and incubated at 37° C. for 24 hours. The plates were photographed, colonies counted and statistics of percent survival recorded.

[2] = tested on: GBS wild type strain COH1; test: GBS survival with porphyrin supplementation and 30 min incubation (optional wash), with or without pulsed 450 nm light (Study 2); type: cell-based, Group B Streptococcus (GBS)
Procedure: GBS wild type strain COH1 was added to 3 mL of Todd Hewitt broth and grown aerobically overnight at 37° C. From the overnight cultures, 500 uL of GBS was added to fresh Todd Hewitt broth and grown logarithmically at 37° C. until reaching a concentration of 10^8 CFU/mL. The culture was then centrifuged at 1300 rpm for three minutes, the supernatant was removed and discarded, and 1 mL of fresh Todd Hewitt broth was added.
The culture was then split into three Eppendorf tubes—a first tube for GBS and second and third tubes for GBS with diluted porphyrins used for incubation. Diluted porphyrins (PPIX or CP III) were added into the second and third tubes and incubated for 30 minutes at 37° C. The third tube was then washed three times with phosphate-buffered saline (PBS) and centrifuged at 1300 rpm for three minutes, and the supernatant was removed and discarded. Serial dilutions of NaCl were made to obtain a suspension of GBS diluted to a concentration of 1×10^4 CFU/mL. The GBS were streaked onto Todd Hewitt agar plates.
The lighted substrate was set to operate in 33% DF pulsed mode and driven with a constant current source. The average irradiance was 3 mW/cm^2. The pulse duration was 10 microseconds with an off time of 20 microseconds, and a pulse repetition rate of 33 kHz. The plates subject to light treatment were irradiated three times at […] with a radiant exposure of 7.56 J/cm^2 during each irradiation session (i.e., each irradiation session was 42 minutes with an incubation period therebetween of 30 minutes).
as §1

[3] = 0.05 mg/mL porphyrin + pulsed 450 nm light, 7.56 J/cm^2, 3 mW/cm^2, 33% DF, three irradiations
[4] = 0.2 mg/mL (incubated) + pulsed 450 nm light 7.56 J/cm^2, three irradiations
[5] = 0.2 mg/mL (incubated), without any irradiation

Row | Molecule | percent GBS survival compared to the control ([1]; 0.02 mg/mL porphyrin + pulsed 450 nm light, 7.56 J/cm^2, 3 mW/cm^2, 33% DF, three irradiations) [%] | percent GBS survival compared to the control [1, 3] | percent GBS survival compared to the control ([2]; 0.02 mg/mL (incubated and washed) + pulsed 450 nm light 7.56 J/cm^2, three irradiations) | percent GBS survival compared to the control ([2]; 0.02 mg/mL (incubated and washed), no irradiation) | percent GBS survival compared to the control ([2]; 0.02 mg/mL (incubated) + pulsed 450 nm light 7.56 J/cm^2, three irradiations) | percent GBS survival compared to the control ([2]; 0.02 mg/mL (incubated), without any irradiation) | percent GBS survival compared to the control ([2]; 0.08 mg/mL (incubated and washed) + pulsed 450 nm light 7.56 J/cm^2, three irradiations) | percent GBS survival compared to the control ([2]; 0.08 mg/mL (incubated and washed), no irradiation) | percent GBS survival compared to the control ([2]; 0.08 mg/mL (incubated) + pulsed 450 nm light 7.56 J/cm^2, three irradiations) | percent GBS survival compared to the control ([2]; 0.08 mg/mL (incubated), without any irradiation) | percent GBS survival compared to the control ([2]; 0.2 mg/mL (incubated and washed) + pulsed 450 nm light 7.56 J/cm^2, three irradiations) | percent GBS survival compared to the control ([2]; 0.2 mg/mL (incubated and washed), no irradiation) | percent GBS survival compared to the control [2, 4] | percent GBS survival compared to the control [2, 5] | percent GBS survival compared to the control ([1]; 0.02 mg/mL porphyrin, without any irradiation) | percent GBS survival compared to the control ([1]; 0.05 mg/mL porphyrin, without any irradiation) | percent GBS survival compared to the control ([2]; 0.05 mg/mL (incubated and washed) + pulsed 450 nm light 7.56 J/cm^2, three irradiations) [%] | percent GBS survival compared to the control ([2]; 0.05 mg/mL (incubated and washed), no irradiation) | percent GBS survival compared to the control ([2]; 0.05 mg/mL (incubated) + pulsed 450 nm light 7.56 J/cm^2, three irradiations) [%] | percent GBS survival compared to the control ([2]; 0.05 mg/mL (incubated), without any irradiation)
1 | C=CC1=C(C)c2cc3[nH]c(cc4nc(cc5[nH]c(cc1n2)c(C)c5CCC(=O)O)C(CCC(=O)O)=C4C)c(C)c3C=C [PPIX, protoporphyrin IX] | 0 | 3% and 0% | approximately 18% | approximately 92% | approximately 68% | approximately 92% | approximately 40% | approximately 76% | approximately 52% | approximately 84% | approximately 10% | approximately 78% | approximately 50% | approximately 80% |  |  |  |  |  | 
2 | coproporphyrin III [CP III] |  | 0% |  |  |  |  |  |  |  |  |  |  | 0% | approximately 82% | approximately 74% | approximately 84% | 0 | approximately 72% | 0 | approximately 90%
